Reference: patent US8901276B2, “Peptide reagents and methods for detection of colon dysplasia” (The Regents of the University of Michigan, priority 2010, dated 2014)
Where no end group is shown, it is not given here. The star is where a group is joined. FITC = O=C1OC2(c3ccc(O)cc3Oc3cc(O)ccc32)c2ccc(NC(=S)*)cc21

Key:
normal colonic mucosa = assay: In vivo imaging with multi-spectral scanning fiber endoscope, normal mucosa; set-up: species or system mice; conditions: mouse
Experimental: (§1) The CPC;Apc mice were first imaged with white light using a non-scanning endoscope (Karl Storz Veterinary Endoscopy, Goleta, Calif.) to assess for the presence of colonic adenomas that have a size between ˜0.5 to 4 mm in diameter. Any adenomas were rinsed of debris including stool and mucous, by delivering tap water through a 3 Fr instrument channel. Then, the fluorescent-labeled peptides were delivered topically at a concentration of 100 μM in 1×PBS in a volume of 1 mL to the distal 4 cm of the colon and rectum. The peptides were incubated for 5 minutes and then the unbound peptides were rinsed away with tap water 3 times. The colon was inspected for any residual peptide, and when clean, the colon was insufflated with air and imaged with the multi-spectral scanning fiber endoscope.

colonic adenomas = assay: In vivo imaging with multi-spectral scanning fiber endoscope; set-up: species or system CPC; Apc mice; conditions: for binding to colonic dysplasia/adenomas on fluorescence images / Average T/B: 100 μM topical, 5 min; for Average T/B: Multi-Spectral Scanning Fiber Endoscopy Results, mean ± SD; for range of T/B ratios: dysplasia versus normal appearing adjacent colonic mucosa
Description: A scanning fiber endoscope system was adapted for fluorescence detection in three channels (RGB) using excitation at 440 (NDHB510APA, Nichia, Tokyo, Japan), 532 (FTEC532-V10TA0, Blue Sky Research, Milpitas, Calif.) and 635 (FMXL635-017TA0B, Blue Sky Research) nm using an RGB coupler (OZ Optics, Ottawa, Canada). The three laser sources are delivered simultaneously into the scanning fiber, and focused to the same point on the illumination plane using a custom lens assembly, as shown in the schematic in FIG. 2A. The laser power coming out of the distal tip of the endoscope is <2 mW for each channel, a level consistent with a non-significant risk (NSR) determination by the U.S. Food and Drug Administration (FDA, 21 CFR 812) for future human clinical studies. The amplitude of the spiral scanner was reduced to achieve a divergence angle of 70 deg (max 100 deg) to minimize noise in the periphery of the image. Fluorescence is collected by a ring of 12 step-index plastic optical fibers (POF) with numerical aperture (N.A.) of 0.63 and outer diameter of 250 μm (Toray Industries Inc, Tokyo, Japan).
as §1
Videos collected during endoscopy were exported as avi video files and converted into sequential png images using Apple QuickTime. White light and fluorescence images for each adenoma were analyzed in NIH Image J. The white light image was utilized to draw a region of interest (ROI) around the adenoma or adjacent normal appearing colonic mucosa which was then superimposed onto the fluorescence image. The mean fluorescence intensities were calculated for each ROI, and a target/background (T/B) ratio was calculated for each colonic adenoma and compared to the surrounding normal appearing mucosa.

[1] = system: human EMR specimens (normal mucosa, polypoid and non-polypoid dysplasia); assay: Stereomicroscopic validation on EMR specimens; conditions: 10 μmol/L, 5 min, mean±SEM
Description: Binding of the candidate or control peptide to the dysplasia on freshly resected human specimens via endoscopic mucosal resection (EMR) was validated on fluorescence stereomicroscopy. Patients with previously diagnosed polypoid and non-polypoid dysplasia who were referred for EMR were recruited. Institutional review board approval was obtained from the VA Palo Alto Health Care System, and informed consent was acquired. After resection, the specimens were rinsed in PBS 3× to remove debris and mucous. An autofluorescence image was acquired before incubating with the peptide. Then, specimens were incubated with either the FITC-labeled candidate or control peptide at a concentration of 10 μmol/L for 5 min. The unbound peptide was rinsed off with PBS 3×. The mucosal surface of the specimen was oriented face up, and a dab of ink was applied to the upper border as a landmark to register the white light and fluorescence images with histology. A white light image was collected from the specimen with and without an overlying transparent grid that contains squares with dimensions of 1×1 mm^2. Fluorescence images were collected at 500 milliseconds per frame (with the overlying grid removed) using a stereomicroscope (Olympus SZX-16 equipped with Rolera camera; Olympus Corp, Tokyo, Japan) using 477 to 500 nm excitation and 500 to 630 nm emission. A correction to the fluorescence images was performed because the intensity at the center of the image is greater than that in the periphery due to differences in distance. A fluorescence image was collected from a solution of 10 μM FITC in a plate to provide a uniform target for calibration, allowing for quantitative analysis over the entire field of view. After the fluorescence intensities were corrected, lines along the length of the specimen spaced by 2-mm intervals in each image were identified using the grid from the white light image. The mean intensity from each 1×1 mm^2 interval along this length of tissue was calculated using Matlab and compared with histology. Histopathologic interpretation was performed by a gastrointestinal pathologist (HA) who classified the specimens stained with H&E as normal colonic mucosa, dysplasia, or adenocarcinoma. The histopathologic evaluation of the EMR specimens was conducted at VA Palo Alto Health Care System (AM) and classified as either dysplasia or normal mucosa.

HT29 cells [2] = assay: Competitive inhibition assay (bound phage counts); assay type: cell-based, human; conditions: up to 200 μM unlabeled peptide
Experimental: Bound phage counts were performed to observe the competitive inhibition effect of the synthetic candidate heptapeptide with its representative phage counterpart in triplicate. HT29 cells (5×10^6) were detached with enzyme free cell dissociation buffer and blocked with 1% BSA containing PBS for 30 min at 4° C. The cells were washed and incubated with phage (2×10^11) for 15 min. Then, the cells were washed with PBS and immediately incubated with different concentrations of unlabeled peptide ranging from 10 to 200 μM for an additional 15 min. Cells were washed 3× and the bound phages were recovered as described above in bound phage counts. The bound phages were then tittered and counted, and the relative inhibition rate was calculated. The inhibition activity of no-insert WT phage by synthetic candidate peptide and phage with unrelated synthetic control peptide were used as negative controls.

Hs738.St/Int. cells [3] = assay: Flow cytometry of FITC-labeled peptides; assay type: cell-based, human; conditions: 10 μM, 60 min, 4° C.
Experimental: (§2) Preferential binding of FITC-Peptide 2 to target cells was validated using flow cytometry. HT29 and Hs738.St/Int. (˜2×10^5) cells were grown, detached, and blocked as described above. These cells were incubated with the FITC-Peptide 2 or -Control peptide 2 (10 μM) for 60 min at 4° C. with continuous agitation. The cells were then washed (3×) with cold PBST followed by immediate fixing for 10 min. with 4% paraformaldehyde. The cells were washed again (1×) with PBS and resuspended in 1 mL of PBS. Flow cytometry was performed using FACSDiVa (BD® LSRII, BD Biosciences, San Jose, Calif.) and analyzed using Flowjo analysis program (Tree Star Inc., Ashland, Oreg.).
(§3) Preferential binding of the candidate peptide labeled with 5-FITC to the target and control cells was also validated using flow cytometry. HT29 and Hs738.St/Int. (˜2×10^5) cells were grown, detached, and blocked, as described above. These cells were incubated with the 5-FITC labeled candidate or control peptide (10 μM) for 60 min at 4° C. with continuous agitation. The cells were then washed 3× with cold PBST followed by immediate fixation for 10 min with 4% paraformaldehyde. The cells were washed again with PBS and resuspended in 1 mL of PBS. Flow cytometry was performed using FACSDiVa (BD® LSRII, BD Biosciences, San Jose, Calif.) and analyzed using Flowjo analysis program (Tree Star Inc. Ashland, Oreg.).

HT29 cells [4] = assay: Flow cytometry of FITC-labeled peptides; assay type: cell-based, human; conditions: 10 μM, 60 min, 4° C., FITC channel
Experimental: as §2, §3

HT29 cells [5] = assay: Fluorescence microscopy of FITC-labeled peptides; assay type: cell-based, human; conditions: 10 μM, 15 min, 4° C.
Experimental: (§4) Preferential binding of the FITC-Peptide 2 and FITC-Control peptide 2 to target and non-target cells was also validated via fluorescence microscopy. HT29 and Hs738.St/Int. cells were grown in 22 mm2 cover slips with ˜80% confluence. Blocking of non-specific binding was performed by adding PBS/0.5% BSA for 30 min. The cells were then incubated with 10 μM of FITC-Peptide 2 or FITC-Control peptide 2 either at 4 or 37° C. for 15 min followed by 1 μg/mL Hoechst dye (Sigma Aldrich, St. Louis, Mo.) along with the peptide. The cells were washed with PBS for 3 times and fixed with 4% paraformaldehyde at room temperature for 10 min. After fixation, the cells were washed again with PBS (1×) and mounted with ProLong® Gold reagent (Invitrogen, Carlsbad, Calif.) and the fluorescence images were acquired with Leica Confocal system. (Leica Microsystems GMBH, Wetzlar, 35578 Germany)
In addition, the ability of the FITC-Peptide 2 peptide to internalize within the HT29 cells was tested. HT29 cells were incubated for 15 min. at either 4° C. or 37° C. in the presence of 10 μM FITC-Peptide 2.
(§5) Preferential binding of the FITC-labeled candidate and control peptides to the target and non-target cells was further validated via fluorescence microscopy. HT29 and Hs738.St/Int. cells were grown on cover slips to ˜80% confluence. Blocking of non-specific binding was performed by adding PBS/0.5% BSA for 30 min. The cells were then incubated with 10 μM of 5-FITC-labeled candidate or control peptide at either 4 or 37° C. for 15 min followed by staining with 1 μg/mL Hoechst dye (Sigma Aldrich, St. Louis, Mo.) along with the peptide. The cells were washed 3× with PBS and fixed with 4% paraformaldehyde at RT for 10 min. After fixation, the cells were washed again with PBS and mounted with ProLong Gold reagent (Invitrogen, Carlsbad, Calif.) and fluorescence images were collected with confocal microscopy (Leica TCS SP5 Microsystems, Bannockburn, Ill.).

[6] = system: human colon surgical specimens (normal mucosa, dysplastic adenomas, carcinoma); assay: Binding of synthetic peptides to human surgical specimens of colon cancer (Example 9); conditions: 10 μM, 15 min, RT
Experimental: Fresh frozen sections from human surgical specimens were cryosectioned with […] and used to localize peptide binding. The sectioned tissues were air dried and washed with PBS 1×. Sections were incubated with FITC labeled peptides (10 μM) for 15 min at RT. The sections were washed three times each for 1 min in PBS and fixed with 4% paraformaldehyde for 10 min. After fixing, the sections were washed again (1×) and mounted with ProLong® Gold reagent with DAPI (Invitrogen, Carlsbad, Calif.). The sections were imaged under a confocal microscope ([…]). All surgical specimens were obtained from the tissue procurement core of University of Michigan with approval from the Institutional Review Board (IRB).

[7] = system: human colonic mucosa sections (normal, dysplasia, adenocarcinoma); assay: Peptide immunohistochemistry on frozen sections (Example 11); conditions: 10 μM, 15 min, RT
Experimental: All specimens were obtained with approval from the University of Michigan Institutional Review Board (IRB). Freshly resected specimens of human colonic mucosa were frozen in OCT and sectioned with 10 μm thickness. The sections were then air dried, washed with PBS, and incubated with the FITC-labeled peptides at a concentration of 10 μM for 15 min at RT. The sections were washed 3× for 1 min in PBS and fixed with 4% paraformaldehyde for 10 min. After fixation, the sections were washed again and mounted with ProLong Gold reagent with DAPI (Invitrogen, Carlsbad, Calif.). The sections were imaged under a confocal microscope (Leica TCS SP5 Microsystems, Bannockburn, Ill.). Adjacent sections were sent for routine histology. The intensity for each image was calculated using Matlab (Mathworks, Natick, Mass.).

Hs738.St/Int. cells [8] = assay: Fluorescence microscopy of FITC-labeled peptides; assay type: cell-based, human; conditions: 10 μM, 15 min
Experimental: as §4, §5

Substance	signal on normal colonic mucosa (normal colonic mucosa)	binding to colonic dysplasia/adenomas on fluorescence images (colonic adenomas)	Average T/B (colonic adenomas)	range of T/B ratios (colonic adenomas)	fluorescence intensity on stereomicroscopy ([1]; non-polypoid dysplasia) [AU]	fluorescence intensity on stereomicroscopy ([1]; normal mucosa) [AU]	fluorescence intensity on stereomicroscopy ([1]; polypoid dysplasia) [AU]	inhibition of KCCFPAQ phage binding to HT29 cells (HT29 cells [2])	binding to Hs738.St/Int. cells on flow cytometry (Hs738.St/Int. cells [3])	total HT29 cell population bound (HT29 cells [4]) [%]	total HT29 cell population bound (HT29 cells [4]; listed as control peptide) [%]	binding to the surface of HT29 cells (HT29 cells [5])	binding to specimens classified from normal to carcinoma [6]	staining of any specimen (normal, dysplasia, adenocarcinoma) [7]	binding to Hs738.St/Int. cells on microscopy (Hs738.St/Int. cells [8])
AKPGYLS-TAMRA: AKPGYLS labeled with 5-Carboxytetramethylrhodamine (TAMRA) (also: TAMRA label, site not given here)	minimal signal	clearly displayed specific binding	1.67±0.12	1.50-1.78	–	–	–	–	–	–	–	–	–	–	–
GGGAGGGAGGGK (FITC)-NH2 (GGGAGGGAGGGK(FITC)-NH2; N-terminus assumed; SMILES C[C@H](NC(=O)CNC(=O)CNC(=O)CN)C(=O)NCC(=O)NCC(=O)NCC(=O)N[C@@H](C)C(=O)NCC(=O)NCC(=O)NCC(=O)N[C@@H](CCCCNC(=S)Nc1ccc2c(c1)C(=O)OC21c2ccc(O)cc2Oc2cc(O)ccc21)C(N)=O) [FITC-Control peptide 2, glycine/alanine control peptide, reference compound]	–	–	–	–	21.8±4.1	16.5±2.5	14.0±3.0	No inhibition	bound minimally	18.6	2.3	did not bind	not able to bind with any of the specimens	did not stain any of the specimens	did not bind
KCCFPAQ-DEAC: KCCFPAQ labeled with 7-Diethylaminocoumarin-3-carboxylic acid (DEAC) (cysteine pairing not given here; also: DEAC label, place not given here)	minimal signal	clearly displayed specific binding	1.71±0.19	1.50-2.06	–	–	–	–	–	–	–	–	–	–	–
